Source: US20210308089A1, “METHODS OF TREATING AND/OR PREVENTING VIRAL INFECTIONS AND/OR DISEASES CAUSED BY VIRUSES IN A SUBJECT IN NEED THEREOF” (priority 2020, published 2021)

System: patients of the REDUCE-IT and earlier EPA placebo-controlled trials
Test: Example 3: adverse events by risk ratio, icosapent ethyl vs placebo (candidate categories; infectious disease terms of interest)
Conditions: ISS

SMILES: CC/C=C\C/C=C\C/C=C\C/C=C\C/C=C\CCCC(=O)OCC [icosapent ethyl, eicosapentaenoic acid ethyl ester]
- AR: Cholesterol Increased (AE table): 0.9%
- AR: Chorea, Related (AE table): 0.7%
- AR: Constipation, Related (AE table): 0.5%
- AR: Diarrhea, Any Severity (AE table): 9.8%
- AR: Diarrhea, Mild Severity (AE table): 7.4%
- AR: Diarrhea, Related (AE table): 8.4%
- AR: Flatulence, Any Severity (AE table): 1.1%
- AR: Flatulence, Mild Severity (AE table): 0.9%
- AR: Flatulence, Related (AE table): 1.1%
- AR: Frequent Bowel Movements, Any Severity (AE table): 0.2%
- AR: Frequent Bowel Movements, Mild Severity (AE table): 0.2%
- AR: Frequent Bowel Movements, Related (AE table): 0.2%
- AR: Hot Flush (AE table): 0.6%
- AR: Huntington's Chorea, Any Severity (AE table): 1.0%
- AR: Huntington's Chorea, Mild Severity (AE table): 0.8%
- AR: Menorrhagia (AE table): 0.4%
- AR: Muscle spasms, Related (AE table): 0.2%
- AR: Nasopharyngitis, Any Severity (AE table): 4.3%
- AR: Nasopharyngitis, Mild Severity (AE table): 3.3%
- AR: Urine Protein Present (AE table): 0.1%
- AR: Weight loss, Related (AE table): 0.3%
- ARR: Cholesterol Increased (AE table): −1.4%
- ARR: Chorea, Related (AE table): −0.5%
- ARR: Constipation, Related (AE table): −0.8%
- ARR: Diarrhea, Any Severity (AE table): −1.6%
- ARR: Diarrhea, Mild Severity (AE table): −2.2%
- ARR: Diarrhea, Related (AE table): −1.5%
- ARR: Flatulence, Any Severity (AE table): −0.8%
- ARR: Flatulence, Mild Severity (AE table): −0.8%
- ARR: Flatulence, Related (AE table): −0.8%
- ARR: Frequent Bowel Movements, Any Severity (AE table): −0.6%
- ARR: Frequent Bowel Movements, Mild Severity (AE table): −0.4%
- ARR: Frequent Bowel Movements, Related (AE table): −0.6%
- ARR: Hot Flush (AE table): −0.3%
- ARR: Huntington's Chorea, Any Severity (AE table): −1.3%
- ARR: Huntington's Chorea, Mild Severity (AE table): −0.9%
- ARR: Menorrhagia (AE table): −0.6%
- ARR: Muscle spasms, Related (AE table): −0.0%
- ARR: Nasopharyngitis, Any Severity (AE table): −2.3%
- ARR: Nasopharyngitis, Mild Severity (AE table): −2.3%
- ARR: Urine Protein Present (AE table): −0.2%
- ARR: Weight loss, Related (AE table): −0.4%
- NNT: Cholesterol Increased (AE table): 69
- NNT: Chorea, Related (AE table): 187
- NNT: Constipation, Related (AE table): 122
- NNT: Diarrhea, Any Severity (AE table): 61
- NNT: Diarrhea, Mild Severity (AE table): 45
- NNT: Diarrhea, Related (AE table): 65
- NNT: Flatulence, Any Severity (AE table): 121
- NNT: Flatulence, Mild Severity (AE table): 129
- NNT: Flatulence, Related (AE table): 121
- NNT: Frequent Bowel Movements, Any Severity (AE table): 173
- NNT: Frequent Bowel Movements, Mild Severity (AE table): 259
- NNT: Frequent Bowel Movements, Related (AE table): 173
- NNT: Hot Flush (AE table): 292
- NNT: Huntington's Chorea, Any Severity (AE table): 77
- NNT: Huntington's Chorea, Mild Severity (AE table): 109
- NNT: Menorrhagia (AE table): 159
- NNT: Muscle spasms, Related (AE table): 2007
- NNT: Nasopharyngitis, Any Severity (AE table): 43
- NNT: Nasopharyngitis, Mild Severity (AE table): 43
- NNT: Urine Protein Present (AE table): 519
- NNT: Weight loss, Related (AE table): 230
- Risk Ratio (95% CI): Cholesterol Increased (AE table): 0.165 (0.036 to 0.759) 5
- Risk Ratio (95% CI): Chorea, Related (AE table): 0.445(0.107 to 1.853) 3
- Risk Ratio (95% CI): Constipation, Related (AE table): 0.148 (0.017 to 1.265) 5
- Risk Ratio (95% CI): Diarrhea, Any Severity (AE table): 0.847 (0.603 to 1.191) 1
- Risk Ratio (95% CI): Diarrhea, Mild Severity (AE table): 0.741 (0.498 to 1.103) 2
- Risk Ratio (95% CI): Diarrhea, Related (AE table): 0.834 (0.575 to 1.210) 1
- Risk Ratio (95% CI): Flatulence, Any Severity (AE table): 0.463 (0.152 to 1.408) 3
- Risk Ratio (95% CI): Flatulence, Mild Severity (AE table): 0.424 (0.125 to 1.440) 3
- Risk Ratio (95% CI): Flatulence, Related (AE table): 0.463 (0.152 to 1.408) 3
- Risk Ratio (95% CI): Frequent Bowel Movements, Any Severity (AE table): [0 drug vs 3 PBO]
- Risk Ratio (95% CI): Frequent Bowel Movements, Mild Severity (AE table): [0 drug vs 2 PBO]
- Risk Ratio (95% CI): Frequent Bowel Movements, Related (AE table): [0 drug vs 3 PBO]
- Risk Ratio (95% CI): Hot Flush (AE table): 0.556 (0.125 to 2.474) 3
- Risk Ratio (95% CI): Huntington's Chorea, Any Severity (AE table): 0.247 (0.067 to 0.908) 4
- Risk Ratio (95% CI): Huntington's Chorea, Mild Severity (AE table): 0.318 (0.083 to 1.223) 4
- Risk Ratio (95% CI): Menorrhagia (AE table): 0.185 (0.021 to 1.653) 5
- Risk Ratio (95% CI): Muscle spasms, Related (AE table): 0.741 (0.046 to 11.826) 2
- Risk Ratio (95% CI): Nasopharyngitis, Any Severity (AE table): 0.588 (0.344 to 1.004) 3
- Risk Ratio (95% CI): Nasopharyngitis, Mild Severity (AE table): 0.494 (0.265 to 0.921) 3
- Risk Ratio (95% CI): Urine Protein Present (AE table): [0 drug vs 1 PBO]
- Risk Ratio (95% CI): Weight loss, Related (AE table): 0.247 (0.026 to 2.369) 4
- ARR (Chorea, Related): −0.5%
- NNT (Chorea, Related): 187
- Risk Ratio (95% CI) (Chorea, Related): 0.445 (0.107 to 1.853) 3
- ARR (Constipation, Related): −0.8%
- NNT (Constipation, Related): 122
- Risk Ratio (95% CI) (Constipation, Related): 0.148 (0.017 to 1.265) 5
- ARR (Cough): 0.9%
- NNT (Cough): −112
- Risk Ratio (95% CI) (Cough): 1.928 (0.692 to 5.373) −3
- ARR (Diarrhea, Any Severity): −1.6%
- NNT (Diarrhea, Any Severity): 61
- Risk Ratio (95% CI) (Diarrhea, Any Severity): 0.847 (0.603 to 1.191) 1
- ARR (Diarrhea, Mild Severity): −2.2%
- NNT (Diarrhea, Mild Severity): 45
- Risk Ratio (95% CI) (Diarrhea, Mild Severity): 0.741 (0.498 to 1.103) 2
- ARR (Diarrhea, Related): −1.5%
- NNT (Diarrhea, Related): 65
- Risk Ratio (95% CI) (Diarrhea, Related): 0.834 (0.575 to 1.210) 1
- ARR (Flatulence, Any Severity): −0.8%
- NNT (Flatulence, Any Severity): 121
- Risk Ratio (95% CI) (Flatulence, Any Severity): 0.463 (0.152 to 1.408) 3
- ARR (Flatulence, Mild Severity): −0.8%
